This passage reports Ki results from ChEMBL document CHEMBL1146185, “P2-P4 macrocyclic inhibitors of hepatitis C virus NS3-4A serine protease” (Bioorg Med Chem Lett, 2006).

NS3, sequence (A3EZJ3 whole entry): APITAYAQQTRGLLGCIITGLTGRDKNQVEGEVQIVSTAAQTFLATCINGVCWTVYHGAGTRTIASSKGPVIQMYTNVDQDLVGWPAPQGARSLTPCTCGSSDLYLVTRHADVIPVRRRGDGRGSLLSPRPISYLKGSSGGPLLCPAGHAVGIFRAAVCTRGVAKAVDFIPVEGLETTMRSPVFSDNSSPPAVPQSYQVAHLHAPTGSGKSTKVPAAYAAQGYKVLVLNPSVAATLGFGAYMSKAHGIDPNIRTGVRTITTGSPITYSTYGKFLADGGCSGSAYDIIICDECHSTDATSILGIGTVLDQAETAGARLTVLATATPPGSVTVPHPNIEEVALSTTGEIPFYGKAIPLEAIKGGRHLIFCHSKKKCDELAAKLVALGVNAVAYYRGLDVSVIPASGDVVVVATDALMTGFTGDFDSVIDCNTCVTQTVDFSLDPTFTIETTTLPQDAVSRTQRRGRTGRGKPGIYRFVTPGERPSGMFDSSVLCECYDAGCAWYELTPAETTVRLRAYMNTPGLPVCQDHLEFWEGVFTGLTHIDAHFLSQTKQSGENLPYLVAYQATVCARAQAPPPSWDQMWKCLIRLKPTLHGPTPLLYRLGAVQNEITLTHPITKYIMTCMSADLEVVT

This experiment addresses NS3 (Hepatitis C virus, UniProt A3EZJ3). Put plainly: Binding affinity to HCV NS3 protease. Further details: species or system Hepacivirus hominis.
Compound `CCCC(NC(=O)[C@@H]1C[C@@H]2CN1C(=O)[C@H](C1CCCCC1)NC(=O)Cc1cccc(c1)OCCCO2)C(=O)C(=O)NCC(=O)N[C@H](C(=O)N(C)C)c1ccccc1` (some centres not stated) came in with a Ki of 8 nM.

In the case of `CCCC(NC(=O)[C@@H]1C[C@@H]2CN1C(=O)[C@H](C1CCCC(C(=O)O)C1)NC(=O)Cc1cccc(c1)OCCCO2)C(=O)C(=O)NCC(=O)N[C@H](C(=O)N(C)C)c1ccccc1` (some centres not stated), affinity was put at a Ki of 6 nM. The compound `CCCC(NC(=O)[C@@H]1C[C@@H]2CN1C(=O)[C@H](C(C)(C)C)NC(=O)Oc1cccc(c1)OCCCO2)C(=O)C(=O)NCC(=O)N[C@H](C(=O)N(C)C)c1ccccc1` (some centres not stated) yielded a Ki of 200 nM.

`CCCC(NC(=O)[C@@H]1C[C@@H]2CN1C(=O)[C@H]([C@H]1CC[C@@H](C(=O)O)CC1)NC(=O)Cc1cccc(c1)OCCCO2)C(=O)C(=O)NCC(=O)N[C@H](C(=O)N(C)C)c1ccccc1` (some centres not stated) gave a Ki of 30 nM. Regarding `CCCC(NC(=O)[C@@H]1C[C@@H]2CN1C(=O)[C@H]([C@H]1CC[C@H](C(=O)O)CC1)NC(=O)Cc1cccc(c1)OCCCO2)C(=O)C(=O)NCC(=O)N[C@H](C(=O)N(C)C)c1ccccc1` (some centres not stated), affinity was put at a Ki of 19 nM. Next, `CCCC(NC(=O)[C@@H]1C[C@@H]2CN1C(=O)[C@H](C1CCCCC1)NC(=O)N(C)Cc1cccc(c1)OCCCO2)C(=O)C(=O)NCC(=O)N[C@H](C(=O)N(C)C)c1ccccc1` (some centres not stated): 26 nM. The compound `CCCC(NC(=O)[C@@H]1C[C@@H]2CN1C(=O)[C@H](C1CCCCC1)NC(=O)Nc1cccc(c1)OCCCO2)C(=O)C(=O)NCC(=O)N[C@H](C(=O)N(C)C)c1ccccc1` (some centres not stated) displayed a Ki of 1600 nM. `CCCC(NC(=O)[C@@H]1C[C@@H]2CN1C(=O)[C@H](C1CCCCC1)NC(=O)Cc1cc(OC)cc(c1)OCCCO2)C(=O)C(=O)NCC(=O)N[C@H](C(=O)N(C)C)c1ccccc1` (some centres not stated) displayed a Ki of 32 nM. With `CCCC(NC(=O)[C@@H]1C[C@@H]2CN1C(=O)[C@H](C1CCCCC1)NC(=O)Cc1cc(C)cc(c1)OCCCO2)C(=O)C(=O)NCC(=O)N[C@H](C(=O)N(C)C)c1ccccc1` (some centres not stated), the Ki is 30 nM. The value for `CCCC(NC(=O)[C@@H]1C[C@@H]2CN1C(=O)[C@H](C(C)(C)C)NC(=O)c1cccc(c1)OCCCCO2)C(=O)C(=O)NCC(=O)N[C@H](C(=O)N(C)C)c1ccccc1` (some centres not stated) was 210 nM; that for `CCCC(NC(=O)[C@@H]1C[C@@H]2CN1C(=O)[C@H](C1CCCCC1)NC(=O)Cc1ccc(C)c(c1)OCCCO2)C(=O)C(=O)NCC(=O)N[C@H](C(=O)N(C)C)c1ccccc1` (some centres not stated) was 12 nM; that for `CCCC(NC(=O)[C@@H]1C[C@@H]2CN1C(=O)[C@H](C1CCCCC1)NC(=O)N(C)c1cccc(c1)OCCCO2)C(=O)C(=O)NCC(=O)N[C@H](C(=O)N(C)C)c1ccccc1` (some centres not stated) was 90 nM.

As usually defined, the Ki is the dissociation constant of the complex between target and ligand, obtained from inhibition or displacement. Higher therefore signals weaker binding.
